These results are taken from ChEMBL document CHEMBL1201862, “PubChem BioAssay data set” (2004).

Test systems include HOP-62; OVCAR-4; MDA-MB-435; EKVX; COLO 205; NCI-H460; A498; T47D; BT-549; SR; Hs-578T; Malme-3M; U-251; DU-145; ACHN; SK-OV-3; OVCAR-5; CAKI-1; UACC-257; RXF 393.
Common to all, as to experiment: NCI-60 cell line screen, 48 h

Each structure is given as a SMILES string.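 Five compound concentrations were applied to cells in 96-well plates for 48 hours; endpoints were derived by simple linear interpolation of the resulting dose-response curve. GI50: concentration for 50% inhibition of growth.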 Active and inactive are the calls of the source. Cut-off read from the data, not from the text of the source: active = GI50 up to about 1.1 µM and inactive = higher.

As to `COC(=O)c1ccccc1/C=C1\Cc2cc3c(cc2C1=O)CCC3`, the GI50 in the experiment with HOP-62 is 29.6 µM (inactive); in the experiment on OVCAR-4, > 100 µM (inactive); in the experiment with MDA-MB-435, 3.89 µM (inactive); in the experiment on EKVX it was > 100 µM (inactive); in the experiment on COLO 205, > 100 µM (inactive); in the experiment on NCI-H460, > 100 µM (inactive). The GI50 is 61.2 µM (inactive) in the experiment on A498; > 100 µM (inactive) in the experiment with T47D; > 100 µM (inactive) in the experiment on BT-549; > 100 µM (inactive) in the experiment with SR; > 10 µM (inactive) with Hs-578T; > 100 µM (inactive) with Malme-3M. For the same molecule, the GI50 in the experiment with U-251 is 43 µM (inactive); with DU-145 it was > 100 µM (inactive); with ACHN, > 100 µM (inactive); in the experiment with SK-OV-3, > 100 µM (inactive); in the experiment on OVCAR-5 it was > 100 µM (inactive); with CAKI-1 it was > 100 µM (inactive). Moreover, the GI50 with UACC-257 is > 100 µM (inactive).

Take `N#CC(C#N)=C(N)/C(C#N)=C/c1ccc2ccccc2n1`: the GI50 with HOP-62 was 16 µM (inactive); in the experiment on OVCAR-4, 35.4 µM (inactive); with MDA-MB-435 it was 30.5 µM (inactive); in the experiment on EKVX it was > 100 µM (inactive); in the experiment with NCI-H460, 85.7 µM (inactive); with A498 it was > 100 µM (inactive). Besides, the GI50 is > 100 µM (inactive) with T47D; 26.5 µM (inactive) in the experiment with BT-549; 21.7 µM (inactive) in the experiment with Hs-578T; 20 µM (inactive) in the experiment on RXF 393; 96.8 µM (inactive) in the experiment with Malme-3M; > 10 µM (inactive) with U-251. Moreover, the GI50 with DU-145 is > 100 µM (inactive); in the experiment on ACHN, 17.2 µM (inactive); with SK-OV-3, 35.3 µM (inactive); in the experiment on OVCAR-5, > 100 µM (inactive); with CAKI-1 it was 22.6 µM (inactive); with UACC-257 it was 48.8 µM (inactive).

On to `CCOC(=O)C(C)c1nc2cc(C(F)(F)F)ccc2[nH]c1=O` (stereo not drawn), for which the GI50 is > 100 µM (inactive) in the experiment on HOP-62; 81.5 µM (inactive) with OVCAR-4; > 100 µM (inactive) in the experiment with MDA-MB-435; 46.5 µM (inactive) with EKVX; > 100 µM (inactive) in the experiment on COLO 205; > 100 µM (inactive) in the experiment on NCI-H460. The GI50 in the experiment on A498 was 64.3 µM (inactive); in the experiment with T47D it was 15.4 µM (inactive); in the experiment on BT-549 it was > 100 µM (inactive); in the experiment on Hs-578T, > 100 µM (inactive); in the experiment on RXF 393, > 100 µM (inactive); in the experiment on Malme-3M, > 100 µM (inactive). Besides, the GI50 was > 100 µM (inactive) in the experiment with U-251; 84.5 µM (inactive) in the experiment on DU-145; > 100 µM (inactive) in the experiment on ACHN; > 100 µM (inactive) with SK-OV-3; > 100 µM (inactive) with OVCAR-5; > 100 µM (inactive) with CAKI-1. Also, the GI50 in the experiment with UACC-257 was 69.8 µM (inactive).

With `CC1=C(C(=O)OCCc2ccc([N+](=O)[O-])cc2)C(c2cccc([N+](=O)[O-])c2)C(C(=O)OC(C)C)=C(C)N1` (stereo not drawn), the GI50 in the experiment on HOP-62 was 5.55 µM (inactive); with OVCAR-4 it was > 100 µM (inactive); in the experiment with MDA-MB-435 it was 4.46 µM (inactive); in the experiment with EKVX, 5.43 µM (inactive); in the experiment on COLO 205, 5.81 µM (inactive); in the experiment with NCI-H460, 3.72 µM (inactive). The GI50 is 2.94 µM (inactive) with T47D; 2.94 µM (inactive) in the experiment with BT-549; 3.49 µM (inactive) in the experiment on SR; 2.86 µM (inactive) with Hs-578T; 2.91 µM (inactive) in the experiment on RXF 393; 6.75 µM (inactive) in the experiment with Malme-3M. Moreover, the GI50 in the experiment on U-251 was 5.69 µM (inactive); in the experiment with DU-145, > 100 µM (inactive); in the experiment on ACHN, 4.82 µM (inactive); with SK-OV-3, > 100 µM (inactive); with OVCAR-5, > 100 µM (inactive); in the experiment with CAKI-1 it was 4.68 µM (inactive). Besides, the GI50 in the experiment on UACC-257 is 5.89 µM (inactive).

On to `COC1=CC(=O)N(C)C(O)C1(C#N)OC1OC(CO)C(O)C(O)C1O` (stereo not drawn), for which the GI50 with HOP-62, with OVCAR-4, in the experiment on MDA-MB-435, in the experiment with EKVX, with COLO 205 and with NCI-H460 was > 100 µM (inactive) throughout. The GI50 in the experiment with A498, in the experiment with T47D, in the experiment on BT-549, in the experiment with SR, in the experiment with Hs-578T and with U-251 was > 100 µM (inactive) each time. Moreover, the GI50 in the experiment on DU-145, with ACHN, in the experiment on SK-OV-3, in the experiment with OVCAR-5, in the experiment with CAKI-1 and in the experiment with UACC-257 was > 100 µM (inactive) in each case.

Regarding `N#Cc1c(-c2ccc(Cl)cc2)[nH]c(=O)n(C2OC(CO)C(O)C(O)C2O)c1=O` (stereo not drawn), the GI50 was > 100 µM (inactive) with HOP-62; > 100 µM (inactive) in the experiment with OVCAR-4; > 100 µM (inactive) in the experiment on MDA-MB-435; 54.6 µM (inactive) in the experiment with EKVX; > 100 µM (inactive) in the experiment with COLO 205; > 100 µM (inactive) with NCI-H460. Besides, the GI50 with A498 was 21.1 µM (inactive); with T47D it was 74 µM (inactive); in the experiment with BT-549 it was > 100 µM (inactive); in the experiment with Hs-578T, > 100 µM (inactive); in the experiment on RXF 393, > 100 µM (inactive); in the experiment on U-251, > 100 µM (inactive). Also, the GI50 in the experiment with DU-145, in the experiment with ACHN, in the experiment on SK-OV-3, in the experiment with OVCAR-5, in the experiment with CAKI-1 and in the experiment with UACC-257 was > 100 µM (inactive) in each case.

`O=C1OC2c3ccccc3C(=O)C2(c2ccccc2)N1c1ccccc1` (stereo not drawn): the GI50 in the experiment on HOP-62 was > 200 µM (inactive); in the experiment on OVCAR-4 it was > 200 µM (inactive); in the experiment on MDA-MB-435 it was > 200 µM (inactive); with EKVX, > 200 µM (inactive); in the experiment with COLO 205 it was 86.1 µM (inactive); with NCI-H460, > 200 µM (inactive). Also, the GI50 in the experiment with A498 was > 200 µM (inactive); in the experiment on T47D it was 174 µM (inactive); with BT-549, > 200 µM (inactive); in the experiment with Hs-578T it was > 200 µM (inactive); in the experiment with RXF 393, > 200 µM (inactive); in the experiment with Malme-3M, > 200 µM (inactive). In addition, the GI50 is > 200 µM (inactive) in the experiment with U-251; > 200 µM (inactive) in the experiment with DU-145; > 200 µM (inactive) with ACHN; > 200 µM (inactive) in the experiment on SK-OV-3; > 200 µM (inactive) in the experiment on OVCAR-5; 121 µM (inactive) in the experiment with CAKI-1. For the same molecule, the GI50 in the experiment on UACC-257 is > 200 µM (inactive).

Regarding `C[C@H]1CN[C@@H]2[C@@H](C)[C@H]3[C@@H](C[C@H]4[C@@H]5CC[C@H]6C[C@@H](N)CC[C@]6(C)[C@H]5CC[C@]34C)O[C@@]2(O)C1`, the GI50 in the experiment with OVCAR-4 was 3.75 µM (inactive); in the experiment on MDA-MB-435, 1.6 µM (inactive); in the experiment with EKVX, 3.34 µM (inactive); with COLO 205, 1.51 µM (inactive); with NCI-H460, 2.32 µM (inactive); in the experiment with A498, 0.142 µM (active). Besides, the GI50 is 2.23 µM (inactive) in the experiment with T47D; 2.19 µM (inactive) in the experiment with BT-549; 1.91 µM (inactive) in the experiment with Hs-578T; 1.64 µM (inactive) in the experiment on Malme-3M; 1.67 µM (inactive) with U-251; 4.03 µM (inactive) in the experiment on DU-145. Also, the GI50 with ACHN was 2.65 µM (inactive); in the experiment on SK-OV-3 it was 6.67 µM (inactive); with OVCAR-5, 5.47 µM (inactive); in the experiment on CAKI-1 it was 2.37 µM (inactive); in the experiment with UACC-257, 1.85 µM (inactive).

`CC[C@]12C=CCN3CC[C@@]4(c5cc(Br)c(OC)cc5N(C)[C@H]4[C@@](O)(C(=O)NC(Cc4c[nH]c5ccccc45)C(=O)OC)[C@@H]1O)[C@@H]32` (stereo partly drawn): the GI50 with HOP-62 is 12.6 µM (inactive); with OVCAR-4 it was 20.5 µM (inactive); with MDA-MB-435 it was 26.2 µM (inactive); in the experiment with EKVX, 18.4 µM (inactive); in the experiment with COLO 205, 3.46 µM (inactive); in the experiment on T47D it was 5.2 µM (inactive). For the same molecule, the GI50 with BT-549 was 7.94 µM (inactive); in the experiment on SR, 4.33 µM (inactive); with Hs-578T, 58.3 µM (inactive); with RXF 393 it was 19.1 µM (inactive); in the experiment with Malme-3M, 11.6 µM (inactive); in the experiment on U-251 it was 5.04 µM (inactive). In addition, the GI50 was 35.2 µM (inactive) with DU-145; 17.5 µM (inactive) in the experiment on ACHN; > 100 µM (inactive) in the experiment with SK-OV-3; 71.4 µM (inactive) in the experiment with OVCAR-5; 86.1 µM (inactive) in the experiment with CAKI-1.

Regarding `O[C@@]1(c2cccs2)c2cccc(Cl)c2[C@](O)(c2cccs2)c2cccc(Cl)c21`, the GI50 is 26.1 µM (inactive) with HOP-62; 18.2 µM (inactive) with OVCAR-4; 17.2 µM (inactive) in the experiment with MDA-MB-435; 16.8 µM (inactive) with EKVX; 19.5 µM (inactive) in the experiment with COLO 205; 16.9 µM (inactive) in the experiment on NCI-H460. The GI50 with A498 is 12.6 µM (inactive); in the experiment with T47D, 32.9 µM (inactive); in the experiment with BT-549 it was 19.2 µM (inactive); in the experiment on Hs-578T, 12.8 µM (inactive); in the experiment on RXF 393, 16.3 µM (inactive); with Malme-3M, 17.8 µM (inactive). Also, the GI50 with U-251 was 16.8 µM (inactive); in the experiment with DU-145, 24.7 µM (inactive); in the experiment on ACHN, 17 µM (inactive); in the experiment on SK-OV-3 it was 22.6 µM (inactive); in the experiment on OVCAR-5, 16.2 µM (inactive); in the experiment with CAKI-1, 24.4 µM (inactive). In the experiment on UACC-257, the GI50 is 15.2 µM (inactive).
